The results in this text go back to ChEMBL document CHEMBL1933035, “Discovery of pyrrolidine-based β-secretase inhibitors: lead advancement through conformational design for maintenance of ligand binding efficiency” (Bioorg Med Chem Lett, 2012).

Data set [1] in a line: Clearance in rat at 2 mg/kg, iv. It counts as ADME, organism-based. More on the design: dose 2 mg/kg, route intravenous. Particulars: in vivo.
A short description of data set [2]: Oral bioavailability in rat at 10 mg/kg. It is filed as ADME, organism-based. Particulars: in vivo.

The term clearance denotes the volume of plasma or blood freed of the substance per unit of time. Usually bioavailability stands for dose-corrected exposure relative to a reference, in per cent. Low values mean little systemic uptake, high ones much systemic uptake. Consider `O=C([C@@H]1CNC[C@]12CCCc1nc(Cl)ccc12)N1CC[C@@H](c2ccccc2)C[C@H]1C1CCCCC1`, for which the clearance in data set [1] is 15 mL/min/kg. For the same compound, the bioavailability in data set [2] amounted to 44%.
